Legend:
Type in all cases: cell-based
human TLR8 = biological target: T1, human TLR8 (Homo sapiens, UniProt Q9NR97); assay: TLR8 inhibition reporter assay (HEK-Blue SEAP); conditions: HEK-Blue cells overexpressing human TLR8, stimulated with R848 15.9 μM, 22 hour incubation
T1 construct: host or cells: HEK-Blue cells
T1 sequence (Q9NR97 27-1041): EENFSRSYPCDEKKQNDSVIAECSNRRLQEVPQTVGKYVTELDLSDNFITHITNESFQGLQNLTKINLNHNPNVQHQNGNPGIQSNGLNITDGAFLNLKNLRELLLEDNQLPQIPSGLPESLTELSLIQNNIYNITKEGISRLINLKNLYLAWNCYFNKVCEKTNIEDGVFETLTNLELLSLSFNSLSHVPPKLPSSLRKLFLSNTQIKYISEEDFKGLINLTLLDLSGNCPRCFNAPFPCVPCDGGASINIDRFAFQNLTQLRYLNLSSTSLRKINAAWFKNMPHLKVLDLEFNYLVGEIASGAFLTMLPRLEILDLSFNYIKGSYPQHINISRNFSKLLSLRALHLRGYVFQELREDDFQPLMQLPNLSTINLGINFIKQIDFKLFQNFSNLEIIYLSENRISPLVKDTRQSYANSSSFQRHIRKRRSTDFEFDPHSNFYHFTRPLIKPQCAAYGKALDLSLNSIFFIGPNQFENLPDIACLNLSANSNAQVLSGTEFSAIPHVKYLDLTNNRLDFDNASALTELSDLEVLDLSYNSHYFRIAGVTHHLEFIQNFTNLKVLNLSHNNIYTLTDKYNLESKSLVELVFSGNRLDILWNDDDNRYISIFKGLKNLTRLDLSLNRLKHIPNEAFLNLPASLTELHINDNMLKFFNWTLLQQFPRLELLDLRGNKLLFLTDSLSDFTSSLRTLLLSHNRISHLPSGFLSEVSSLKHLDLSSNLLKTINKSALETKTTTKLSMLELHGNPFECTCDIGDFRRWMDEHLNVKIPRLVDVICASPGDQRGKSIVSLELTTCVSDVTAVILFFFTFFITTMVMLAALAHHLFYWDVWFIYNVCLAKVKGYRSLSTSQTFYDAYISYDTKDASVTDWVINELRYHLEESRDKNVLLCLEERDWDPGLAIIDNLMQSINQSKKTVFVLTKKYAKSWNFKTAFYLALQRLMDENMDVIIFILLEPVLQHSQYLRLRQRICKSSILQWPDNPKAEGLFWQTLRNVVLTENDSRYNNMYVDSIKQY
How it was run: (§1)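 Stimulation followed a 30 min room-temperature compound exposure (final 0.05 nM-50 μM): TLR7 cells with 7.5 μM gardiquimod, TLR8 with 15.9 μM R848, TLR9 with 5 nM ODN2006. After 22 h at 37 °C, secreted alkaline phosphatase was detected colorimetrically and inhibition calculated against DMSO and known-inhibitor controls.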

human TLR9 = biological target: T2, human TLR9 (Homo sapiens, UniProt Q9NR96); assay: TLR9 inhibition reporter assay (HEK-Blue SEAP); conditions: HEK-Blue cells overexpressing human TLR9, stimulated with ODN2006 5 nM, 22 hour incubation
T2 construct: host or cells: HEK-Blue cells
T2 sequence (Q9NR96 26-1032): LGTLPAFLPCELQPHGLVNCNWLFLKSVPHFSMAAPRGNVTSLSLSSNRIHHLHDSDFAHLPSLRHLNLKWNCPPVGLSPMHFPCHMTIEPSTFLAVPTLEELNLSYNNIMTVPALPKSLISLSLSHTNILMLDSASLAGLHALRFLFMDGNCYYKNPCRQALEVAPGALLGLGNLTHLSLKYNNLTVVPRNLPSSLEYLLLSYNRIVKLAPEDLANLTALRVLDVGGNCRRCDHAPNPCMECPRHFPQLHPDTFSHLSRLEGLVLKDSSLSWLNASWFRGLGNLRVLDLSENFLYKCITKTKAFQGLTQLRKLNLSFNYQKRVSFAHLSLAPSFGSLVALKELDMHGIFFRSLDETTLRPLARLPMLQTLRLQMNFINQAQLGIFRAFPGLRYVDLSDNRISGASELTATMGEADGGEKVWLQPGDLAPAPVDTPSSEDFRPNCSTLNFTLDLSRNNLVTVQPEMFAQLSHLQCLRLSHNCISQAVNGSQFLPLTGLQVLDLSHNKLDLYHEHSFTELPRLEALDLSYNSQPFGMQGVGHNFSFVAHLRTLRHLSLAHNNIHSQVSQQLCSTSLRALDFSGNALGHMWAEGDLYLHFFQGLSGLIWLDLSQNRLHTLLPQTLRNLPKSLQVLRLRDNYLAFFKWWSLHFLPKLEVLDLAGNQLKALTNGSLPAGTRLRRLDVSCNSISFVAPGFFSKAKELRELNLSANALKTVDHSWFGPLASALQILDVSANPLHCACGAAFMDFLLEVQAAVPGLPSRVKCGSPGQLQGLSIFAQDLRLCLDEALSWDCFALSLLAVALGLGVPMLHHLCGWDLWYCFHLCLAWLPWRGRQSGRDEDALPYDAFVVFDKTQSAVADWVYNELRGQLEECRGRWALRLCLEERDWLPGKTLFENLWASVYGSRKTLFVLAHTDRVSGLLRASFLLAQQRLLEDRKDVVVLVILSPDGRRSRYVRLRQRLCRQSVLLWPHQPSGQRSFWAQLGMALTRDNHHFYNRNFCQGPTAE
How it was run: as §1

human TLR7 = biological target: T3, human TLR7 (Homo sapiens, UniProt Q9NYK1); assay: TLR7 inhibition reporter assay (HEK-Blue SEAP); conditions: HEK-Blue cells overexpressing human TLR7, stimulated with gardiquimod 7.5 μM, 22 hour incubation
T3 construct: host or cells: HEK-Blue cells
T3 sequence (Q9NYK1 27-1049): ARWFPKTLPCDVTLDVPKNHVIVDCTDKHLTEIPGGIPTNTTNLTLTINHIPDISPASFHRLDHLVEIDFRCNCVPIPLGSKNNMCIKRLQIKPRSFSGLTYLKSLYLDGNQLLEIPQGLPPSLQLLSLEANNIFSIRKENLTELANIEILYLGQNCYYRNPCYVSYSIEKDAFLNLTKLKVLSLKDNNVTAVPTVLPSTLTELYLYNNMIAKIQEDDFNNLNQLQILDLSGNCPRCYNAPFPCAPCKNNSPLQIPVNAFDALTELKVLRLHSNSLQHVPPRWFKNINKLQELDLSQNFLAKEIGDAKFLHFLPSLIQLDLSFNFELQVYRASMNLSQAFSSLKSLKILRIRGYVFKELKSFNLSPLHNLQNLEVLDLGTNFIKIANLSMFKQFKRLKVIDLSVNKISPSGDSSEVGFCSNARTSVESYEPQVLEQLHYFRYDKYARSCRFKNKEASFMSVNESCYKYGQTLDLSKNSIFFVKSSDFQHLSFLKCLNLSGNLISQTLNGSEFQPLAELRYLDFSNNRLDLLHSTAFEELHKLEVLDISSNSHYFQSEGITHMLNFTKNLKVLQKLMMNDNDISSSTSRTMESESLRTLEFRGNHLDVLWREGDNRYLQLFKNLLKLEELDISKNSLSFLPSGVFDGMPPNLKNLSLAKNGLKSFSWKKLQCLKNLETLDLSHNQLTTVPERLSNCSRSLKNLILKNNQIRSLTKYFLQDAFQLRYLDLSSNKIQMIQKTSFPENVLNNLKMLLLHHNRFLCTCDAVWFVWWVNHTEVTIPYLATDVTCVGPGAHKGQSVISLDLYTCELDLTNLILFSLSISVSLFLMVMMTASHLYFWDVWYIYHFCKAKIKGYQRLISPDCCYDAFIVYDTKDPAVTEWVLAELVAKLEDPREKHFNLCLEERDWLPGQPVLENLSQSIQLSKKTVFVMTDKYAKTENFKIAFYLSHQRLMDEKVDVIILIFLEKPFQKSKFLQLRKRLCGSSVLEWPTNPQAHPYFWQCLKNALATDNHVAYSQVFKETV
How it was run: as §1

IC50 (human TLR8) [nM] | IC50 (human TLR9) [nM] | IC50 (human TLR7) [nM] | Structure (SMILES)
2.5 | 2190 | 2.1 | CCCN1CCC(Oc2ccc3[nH]c(-c4cn5cnnc5c(C)c4C)c(C(C)C)c3c2)CC1 [Example 63, 6-(3-isopropyl-5-((1-propylpiperidin-4-yl)oxy)-1H-indol-2-yl)-7,8-dimethyl-[1,2,4]triazolo[4,3-a]pyridine]
3.2 | 721 | 12.9 | Cc1cc(-c2[nH]c3ccc(OCC4CCNCC4)cc3c2C(C)C)ccn1 [Example 156]
63.3 | 5050 | 682 | COc1ccc(-c2[nH]c3ccc(OCCN4CCOCC4)cc3c2C(C)C)cc1OC [Example 173, 4-(2-((2-(3,4-dimethoxyphenyl)-3-isopropyl-1H-indol-5-yl)oxy)ethyl)morpholine]
3.5 | 3160 | 1.1 | Cc1cc(-c2[nH]c3ccc(OCC4CN(CC(C)(C)O)C4)cc3c2C(C)C)cn2ncnc12 [Example 26, 1-(3-(((3-isopropyl-2-(8-methyl-[1,2,4]triazolo[1,5-a]pyridin-6-yl)-1H-indol-5-yl)oxy)methyl)azetidin-1-yl)-2-methylpropan-2-ol]
12.8 | 1900 | 111 | COc1ccc(-c2[nH]c3ccc(OCC(=O)NCC4CCCCN4)cc3c2C(C)C)cc1OC (stereo not drawn) [Example 126, 2-((2-(3,4-dimethoxyphenyl)-3-isopropyl-1H-indol-5-yl)oxy)-N-(piperidin-2-ylmethyl)acetamide]
1.1 | > 50000 | 0.6 | Cc1cc(-c2[nH]c3ccc(OCC4CCN(C5COC5)CC4)cc3c2C(C)C)cn2ncnc12 [Example 43, 6-(3-isopropyl-5-((1-(oxetan-3-yl)piperidin-4-yl)methoxy)-1H-indol-2-yl)-8-methyl-[1,2,4]triazolo[1,5-a]pyridine]
10 | 300 | 1.9 | CNCC(=O)N1CCC(Oc2ccc3[nH]c(-c4cc(C)nc(C)c4)c(C(C)C)c3c2)CC1 [Example 109, 1-(4-((2-(2,6-dimethylpyridin-4-yl)-3-isopropyl-H-indol-5-yl)oxy)piperidin-1-yl)-2-(methylamino)ethanone]
227 | 2310 | 164 | COc1ccc(-c2[nH]c3ccc(OCC(=O)N4CCC[C@]5(CCCC[C@@H]5N)C4)cc3c2C(C)C)cc1OC [Example 123, 1-((6R,7S)-7-amino-2-azaspiro[5.5]undecan-2-yl)-2-((2-(3,4-dimethoxyphenyl)-3-isopropyl-1H-indol-5-yl)oxy)ethan-1-one]
2.4 | 733 | 5.6 | Cc1cc(-c2[nH]c3ccc(OC4CCN(CC(C)O)CC4)cc3c2C(C)C)cc(C)n1 (stereo not drawn) [Example 69, 1-(4-((2-(2,6-dimethylpyridin-4-yl)-3-isopropyl-1H-indol-5-yl)oxy)piperidin-1-yl) propan-2-ol]
2.6 | 797 | 2.1 | Cc1cc(-c2[nH]c3ccc(OCC4CCNCC4)cc3c2C(C)C)cn(C)c1=O [Example 7, 5-(3-isopropyl-5-(piperidin-4-ylmethoxy)-1H-indol-2-yl)-1,3-dimethylpyridin-2(1H)-one]
5 | 2570 | 0.3 | Cc1cc(-c2[nH]c3ccc(OCC4CCN(C(=O)CN(C)C)CC4)cc3c2C(C)C)cn2ncnc12 [Example 102, 2-(dimethylamino)-1-(4-(((3-isopropyl-2-(8-methyl-[1,2,4]triazolo[1,5-a]pyridin-6-yl)-1H-indol-5-yl)oxy)methyl)piperidin-1-yl)ethan-1-one]
1 | 530 | 2.9 | Cc1cc(-c2[nH]c3ccc(OC4CCN(C(C)C)CC4)cc3c2C(C)C)cc(C)n1 [Example 31, 2-(2,6-dimethylpyridin-4-yl)-3-isopropyl-5-((1-isopropylpiperidin-4-yl)oxy)-1H-indole]
0.8 | 5570 | 2.8 | Cc1cc(-c2[nH]c3ccc(OC4CCN(CC(C)C)CC4)cc3c2C(C)C)cn(C)c1=O [Example 76, 5-(5-((1-isobutylpiperidin-4-yl)oxy)-3-isopropyl-1H-indol-2-yl)-1,3-dimethylpyridin-2(1H)-one]
3.4 | 3750 | 5.6 | Cc1c(-c2[nH]c3ccc(OC4CCN(C)CC4)cc3c2C(C)C)cn(C)c(=O)c1Cl [Example 46, 3-chloro-5-(3-isopropyl-5-((1-methylpiperidin-4-yl)oxy)-1H-indol-2-yl)-1,4-dimethylpyridin-2(1H)-one]
10.6 | 2570 | 0.7 | Cc1cc(-c2[nH]c3ccc(OC4CCC(N(C)C)CC4)cc3c2C(C)C)cn2ncnc12 (stereo not drawn) [Example 64, 4-((3-isopropyl-2-(8-methyl-[1,2,4]triazolo[1,5-a]pyridin-6-yl)-1H-indol-5-yl)oxy)-N,N-dimethylcyclohexan-1-amine]

— patent publication US12030878B2 (BRISTOL-MYERS SQUIBB COMPANY, priority 2017, dated 2024)
